For orientation: IC50 means the midpoint of a concentration-inhibition curve. Broadly, the inhibition is the relative decrease from the control value, in per cent.

This passage reports IC50 and inhibition results from ChEMBL document CHEMBL3407450, “Design of new hybrid template by linking quinoline, triazole and dihydroquinoline pharmacophoric groups: A greener approach to novel polyazaheterocycles as cytotoxic agents” (Bioorg Med Chem Lett, 2015).

One test deals with MCF7. In words: Cytotoxicity against human MCF7 cells assessed as cell viability after 48 hrs by MTT assay. It is filed as functional, cell-based. As to conditions: MCF7, 48 h. Background: Tetrazolium assays rely on reduction of a dye to a coloured formazan, in cell work by metabolically active cells.
For the next test, the system named is DU-145. In words: Cytotoxicity against human DU145 cells assessed as cell viability after 48 hrs by MTT assay. Format: functional, cell-based. The following applies: DU-145, 48 h.
The test system of another test is HepG2. In words: Cytotoxicity against human HepG2 cells assessed as cell viability after 48 hrs by MTT assay. It is filed as functional, cell-based. As to conditions: HepG2, 48 h.
The test system of the next test is A549. As to the kind of experiment: Cytotoxicity against human A549 cells assessed as cell viability after 48 hrs by MTT assay. It is filed as functional, cell-based. As to conditions: A549, 48 h.
The target in test [1] is 3',5'-cyclic-AMP phosphodiesterase 4B (Homo sapiens) (UniProt Q07343). In words: Inhibition of PDE4B (unknown origin) transfected into Sf9 cells at 30 uM by PDElight HTS cAMP phosphodiesterase assay.
3',5'-cyclic-AMP phosphodiesterase 4B (Homo sapiens), sequence (Q07343 whole entry): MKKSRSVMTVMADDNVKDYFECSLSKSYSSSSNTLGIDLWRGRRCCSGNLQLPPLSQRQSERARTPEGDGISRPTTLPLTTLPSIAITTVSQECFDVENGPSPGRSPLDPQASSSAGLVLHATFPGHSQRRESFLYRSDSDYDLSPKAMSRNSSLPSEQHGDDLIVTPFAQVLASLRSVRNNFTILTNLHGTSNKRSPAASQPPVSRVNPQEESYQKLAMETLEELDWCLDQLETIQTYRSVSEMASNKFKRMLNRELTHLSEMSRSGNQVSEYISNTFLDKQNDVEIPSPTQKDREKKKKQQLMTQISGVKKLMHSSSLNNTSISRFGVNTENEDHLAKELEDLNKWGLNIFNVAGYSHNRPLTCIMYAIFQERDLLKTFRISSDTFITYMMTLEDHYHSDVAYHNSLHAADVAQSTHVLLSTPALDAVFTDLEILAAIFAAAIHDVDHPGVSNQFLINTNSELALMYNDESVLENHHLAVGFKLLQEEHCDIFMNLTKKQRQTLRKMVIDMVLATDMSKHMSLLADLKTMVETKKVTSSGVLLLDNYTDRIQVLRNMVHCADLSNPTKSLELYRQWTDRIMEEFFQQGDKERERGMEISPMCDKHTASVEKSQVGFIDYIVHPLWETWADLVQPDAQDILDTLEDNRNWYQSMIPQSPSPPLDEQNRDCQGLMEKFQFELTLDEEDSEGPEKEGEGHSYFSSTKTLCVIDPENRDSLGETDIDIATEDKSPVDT
Test [2] concerns the target 3',5'-cyclic-AMP phosphodiesterase 4D (Homo sapiens) (UniProt Q08499). In words: Inhibition of PDE4D (unknown origin) transfected into Sf9 cells at 30 uM by PDElight HTS cAMP phosphodiesterase assay.

3',5'-cyclic-AMP phosphodiesterase 4D (Homo sapiens), sequence (Q08499 whole entry): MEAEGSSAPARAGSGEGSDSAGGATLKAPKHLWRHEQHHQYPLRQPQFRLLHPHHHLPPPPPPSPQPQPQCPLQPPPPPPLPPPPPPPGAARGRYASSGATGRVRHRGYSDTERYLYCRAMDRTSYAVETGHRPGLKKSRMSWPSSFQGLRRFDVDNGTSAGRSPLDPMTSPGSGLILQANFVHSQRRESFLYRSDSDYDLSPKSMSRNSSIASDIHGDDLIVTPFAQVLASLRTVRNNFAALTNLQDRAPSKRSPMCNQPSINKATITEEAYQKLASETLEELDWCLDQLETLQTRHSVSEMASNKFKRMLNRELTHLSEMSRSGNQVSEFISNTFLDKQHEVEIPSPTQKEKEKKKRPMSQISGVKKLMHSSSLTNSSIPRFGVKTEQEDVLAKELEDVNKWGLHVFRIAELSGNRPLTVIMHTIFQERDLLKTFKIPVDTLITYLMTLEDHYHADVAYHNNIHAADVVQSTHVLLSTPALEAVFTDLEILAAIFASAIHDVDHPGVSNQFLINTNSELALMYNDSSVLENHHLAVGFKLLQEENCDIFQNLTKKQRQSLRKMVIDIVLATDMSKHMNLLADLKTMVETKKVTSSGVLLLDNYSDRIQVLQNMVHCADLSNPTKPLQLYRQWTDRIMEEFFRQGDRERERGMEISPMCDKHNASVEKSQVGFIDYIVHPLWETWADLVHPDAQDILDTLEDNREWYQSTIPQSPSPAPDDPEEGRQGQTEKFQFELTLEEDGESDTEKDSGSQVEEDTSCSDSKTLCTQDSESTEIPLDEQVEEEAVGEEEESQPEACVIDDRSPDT

As to `CC1=CC(C)(C)N(Cc2cn(Cc3cc4ccccc4nc3Cl)nn2)c2ccccc21`, the IC50 with MCF7 stood at 16.2 µM; in the test with DU-145, 19.3 µM; in the test on HepG2, 13.1 µM; with A549 it was 17.5 µM.

`COc1ccc2nc(Cl)c(Cn3cc(CN4c5ccc(C)cc5C(C)=CC4(C)C)nn3)cc2c1`: the IC50 in the test on MCF7 was found to be 14.3 µM; with DU-145, 19.8 µM; in the test on HepG2, 21.6 µM; in the test on A549, 15.5 µM. The inhibition in test [1] was found to be 88%; in test [2], 52%.

Turning to `COc1cccc2c1C(=O)c1c(O)c3c(c(O)c1C2=O)C[C@@](O)(C(=O)CO)C[C@@H]3O[C@H]1C[C@H](N)[C@H](O)[C@H](C)O1` [DOXORUBICIN], the IC50 with MCF7 worked out at 0.8 µM; in the test with DU-145, 0.5 µM; in the test on HepG2 it was 3.5 µM; in the test on A549, 9.7 µM.

In the case of `COc1ccc2nc(Cl)c(Cn3cc(CN4c5ccccc5C(C)=CC4(C)C)nn3)cc2c1`, the IC50 is 38.7 µM in the test on MCF7, 34 µM in the test on DU-145, 41.2 µM in the test with HepG2 and 33.4 µM in the test with A549.

As to `CC1=CC(C)(C)N(Cc2cn(Cc3cc4ccc(C)cc4nc3Cl)nn2)c2ccccc21`, the IC50 in the test on MCF7 turned out to be 10.8 µM; with DU-145 it was 27 µM; in the test on HepG2, 26.2 µM; in the test with A549, 11.1 µM.

Turning to `COc1ccc2c(c1)C(C)=CC(C)(C)N2Cc1cn(Cc2cc3cc(OC)ccc3nc2Cl)nn1`, the IC50 with MCF7 was 26.4 µM; with DU-145 it was 28.6 µM; in the test on HepG2, 27.2 µM; with A549, 30.9 µM.

`CC1=CC(C)(C)N(Cc2cn(Cc3cc4cc(C)ccc4nc3Cl)nn2)c2ccccc21`: the IC50 with MCF7 turned out to be 30.6 µM; with DU-145 it was 31.3 µM; in the test on HepG2 it was 23 µM; with A549 it was 29.4 µM.
